Assay results: patent publication US5846525A, “Protected biopolymers for oral administration and methods of using same” (Trega Biosciences, Inc., priority 1995, dated 1998)
Values joined by “and” are separate entries in the source; they are usually repeats but may differ in a detail not shown here. Equal values may be shown once.

Key:
[1] = Binding of CRA-1 to Amberlite IRP-69 cation exchange resin (HPLC of filtrate); format: physicochemical
Method: CRA-1, which has the amino acid sequence Ac-Nle-Gln-His-(D)Phe-Arg-(D)Trp-Gly-NH2, was prepared as described in U.S. Pat. No. 5,420,109, where it is referred to as "EX-2." A 1 mg/ml solution of peptide CRA-1 was prepared by dissolving 19.7 mg CRA-1 in 19.7 ml PBS. Ten mg Amberlite® IRP-69 ("IRP-69") (Rohm and Haas) was added to 5 ml CRA-1 solution (5 mg CRA-1) to achieve a CRA-1:IRP-69 ratio of 1:2. The mixture was adjusted to pH 6.0 and stirred for 2 hr. The suspension then was filtered and the filtrate was analyzed by HPLC (see Example II.A) to determine the total amount of CRA-1 bound to IRP-69. Binding also was performed using CRA-1:IRP-69 ratios of 1:20 and 1:200.

[2] = Binding of CRA-1 to Amberlite IRP-64 cation exchange resin (HPLC of filtrate); format: physicochemical
Method: A 1 mg/ml CRA-1 solution was prepared by dissolving 42.5 mg CRA-1 in 42.5 ml PBS. Fifty mg Amberlite® IRP-64 ("IRP-64") (Rohm and Haas) was added to 5 ml CRA-1 solution (5 mg CRA-1) to achieve a peptide:resin ratio of 1:10. The mixture was adjusted to pH 6.0 and stirred for 1 hr. The suspension was filtered and the filtrate was analyzed by HPLC (see Example II.A) to determine the total amount of CRA-1 bound to IRP-64. Binding also was performed using CRA-1: IRP-64 ratios of 1:1, 1:2 and 1:20.

[3] = biological target: T1, trypsin (Bos taurus, UniProt P00760); test: Susceptibility of free peptide to enzymatic degradation by trypsin; format: in vitro ADME; details: 37° C.
T1 construct: gene PRSS1
T1 sequence (P00760 24-246): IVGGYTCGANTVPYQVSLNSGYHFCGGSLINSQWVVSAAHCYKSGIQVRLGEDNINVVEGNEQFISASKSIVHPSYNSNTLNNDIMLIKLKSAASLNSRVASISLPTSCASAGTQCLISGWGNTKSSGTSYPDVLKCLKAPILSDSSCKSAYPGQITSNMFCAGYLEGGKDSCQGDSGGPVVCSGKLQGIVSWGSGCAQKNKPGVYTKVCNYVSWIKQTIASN
Method: (§1) Phosphate buffered saline (PBS) solutions were prepared and adjusted to pH 5.0, 7.0 or 8.0. CRA-1 was dissolved into each of the PBS solutions to a final concentration of 3 mg/ml. Samples of 3 mg/ml trypsin and 3 mg/ml chymotrypsin also were prepared in PBS at pH 5.0, 7.0 or 8.0.
(§2) To examine the susceptibility of CRA-1 to trypsin and chymotrypsin, 1 ml CRA-1 solution at pH 5.0 was mixed with 1 ml trypsin solution at pH 5.0 and 1 ml PBS (pH 5.0) to obtain a final concentration of 1 mg/ml CRA-1 and 1 mg/ml trypsin. Similar assay samples were prepared to examine the stability of CPA-1 in trypsin at pH 7.0 or pH 8.0 and in chymotrypsin at pH 5.0, 7.0 or 8.0. As a control, an assay sample was prepared without trypsin or chymotrypsin.
(§3) Immediately upon preparing an assay sample, 100 μl of the incubation mixture was removed and the reaction was terminated by adding 100 μl of a Stop solution (90% acetonitrile containing 0.1% trifluoroacetic acid). These samples were analyzed by HPLC to determine the amount of CRA-1 present in each sample at the initiation of the reaction.
(§4) The remainder of each assay sample was incubated in an oven at 37° C. At selected times after beginning the incubation, a 100 μl aliquot was withdrawn, the reaction was terminated as described above. The samples were analyzed by HPLC to determine the amount of intact CRA-1.

[4] = biological target: T2, chymotrypsin (Bos taurus, UniProt P00766); test: Susceptibility of free peptide to enzymatic degradation by chymotrypsin; format: in vitro ADME; details: 37° C.
Method: as §1, §2, §3, §4

[5] = biological target: T1, trypsin; test: Stability of peptide-ion exchange resin complex to enzymatic degradation by trypsin; format: in vitro ADME; details: unbound control
Method: (§5) Fifty mg or 100 mg of the complex was suspended in 5 ml of PBS (pH 7.0) containing either 1 mg/ml trypsin or 1 mg/ml chymotrypsin. The suspensions were rotated at 200 rpm in an incubator at 37° C. for 2 hr. Following incubation, the suspension was vacuum-filtered and the filtrate was analyzed by HPLC to determine the amount of CRA-1 bound to the IRP-64. […] After 1 hr, the suspension was vacuum-[…] ion exchange resin was washed and filtered a second time with 50 ml 2M KCl. The filtrate and wash were analyzed by HPLC to determine the amount of drug recovered from the ion exchange resin.

[6] = test system: T3, trypsin; test: as above; format: in vitro ADME; details: isolated enzyme trypsin, pH 7, unbound control, read-out: CRA-1 remaining
T3 construct: gene PRSS1
Method: as §5

[7] = biological target: T2, chymotrypsin; test: Stability of peptide-ion exchange resin complex to enzymatic degradation by chymotrypsin; format: in vitro ADME; details: unbound control
Method: as §5

[8] = test system: chymotrypsin; test: as above; format: in vitro ADME; details: isolated enzyme chymotrypsin, pH 7, unbound control, read-out: CRA-1 remaining
Method: as §5

## CCCC[C@H](NC(C)=O)C(=O)N[C@@H](CCC(N)=O)C(=O)N[C@@H](Cc1c[nH]cn1)C(=O)N[C@H](Cc1ccccc1)C(=O)N[C@@H](CCCNC(=N)N)C(=O)N[C@H](Cc1c[nH]c2ccccc12)C(=O)NCC(N)=O [CRA-1, Ac-Nle-Gln-His-(D)Phe-Arg-(D)Trp-Gly-NH2]
[1]; IRP-69, peptide:resin ratio 1:2, PBS pH 6.0, stirred 2 hr
  CRA-1 bound to ion exchange resin: 66.91%
[1]; IRP-69, peptide:resin ratio 1:20, PBS pH 6.0, stirred 2 hr
  CRA-1 bound to ion exchange resin: 99.63%
[1]; IRP-69, peptide:resin ratio 1:200, PBS pH 6.0, stirred 2 hr
  CRA-1 bound to ion exchange resin: 99.5% and 99.52%
[2]; IRP-64, peptide:resin ratio 1:1, PBS pH 6.0, stirred 1 hr
  CRA-1 bound to ion exchange resin: 10.48%
[2]; IRP-64, peptide:resin ratio 1:2, PBS pH 6.0, stirred 1 hr
  CRA-1 bound to ion exchange resin: 20.08%
[2]; IRP-64, peptide:resin ratio 1:10, PBS pH 6.0, stirred 1 hr
  CRA-1 bound to ion exchange resin: 97.55%
[2]; IRP-64, peptide:resin ratio 1:20, PBS pH 6.0, stirred 1 hr
  CRA-1 bound to ion exchange resin: 98.97%
[3]; pH 5.0, 1 mg/ml CRA-1, 1 mg/ml trypsin
  stability in the presence of trypsin: stable
[3]; pH 7.0 or 8.0, 1 mg/ml CRA-1, 1 mg/ml trypsin
  half-life of degradation by trypsin: 20 to 30 min
[4]; pH 5.0, 1 mg/ml CRA-1, 1 mg/ml chymotrypsin
  stability in the presence of chymotrypsin: stable
[4]; pH 7.0 or 8.0, 1 mg/ml CRA-1, 1 mg/ml chymotrypsin
  half-life of degradation by chymotrypsin: 20 to 30 min
[5]
  CRA-1 remaining: almost completely degraded
[6]
  remaining at 2 h: 2.96%
[7]
  CRA-1 remaining: almost completely degraded
[8]
  remaining at 2 h: 5.47%
